Experimental findings from ChEMBL document CHEMBL3870336, “The discovery of quinoline based single-ligand human H1 and H3 receptor antagonists” (Bioorg Med Chem Lett, 2016) are described below.

In series [1] the target is Voltage-gated inwardly rectifying potassium channel KCNH2 (Homo sapiens, UniProt Q12809). The series can be described thus: (§1) Displacement of [3H]-dofetilide from human ERG expressed in CHOK1 cell membranes incubated for 4 hrs in dark by luminescent assay. Also on record: species or system CHO-K1. A general note: Loss of bound radioactivity is the signal in a displacement assay; it reports binding, not function.

Series [2] addresses T1, Histamine H1 receptor (Homo sapiens, UniProt P35367). The series can be described thus: Antagonist activity at human Histamine H1 receptor expressed in CHO cells assessed as inhibition of histamine-induced calcium flux preincubated for 30 mins followed by histamine addition by Fluo-4-AM dye based FLIPR assay. Format: functional, cell-based. Background: Calcium assays in cells follow changes in intracellular calcium, usually with a dye or a luminescent sensor.

The target in series [3] is T2, Alpha-1B adrenergic receptor (Homo sapiens, UniProt P35368).
T2 sequence (P35368 whole entry): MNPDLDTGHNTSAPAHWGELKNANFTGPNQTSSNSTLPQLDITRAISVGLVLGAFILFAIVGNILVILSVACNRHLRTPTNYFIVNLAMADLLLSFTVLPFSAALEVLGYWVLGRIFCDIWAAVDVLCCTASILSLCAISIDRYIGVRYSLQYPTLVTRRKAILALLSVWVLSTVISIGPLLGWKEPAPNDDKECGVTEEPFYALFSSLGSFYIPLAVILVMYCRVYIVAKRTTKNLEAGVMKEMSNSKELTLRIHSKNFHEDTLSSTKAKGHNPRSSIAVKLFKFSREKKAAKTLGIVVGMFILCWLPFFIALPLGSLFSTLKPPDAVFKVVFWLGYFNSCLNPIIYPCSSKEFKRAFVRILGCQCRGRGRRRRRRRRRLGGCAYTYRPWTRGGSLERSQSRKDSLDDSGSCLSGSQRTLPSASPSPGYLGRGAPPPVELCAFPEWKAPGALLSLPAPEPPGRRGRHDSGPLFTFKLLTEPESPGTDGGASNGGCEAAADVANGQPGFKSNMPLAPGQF
Nature of the series: Antagonist activity at adrenergic alpha1B receptor (unknown origin) expressed in Rat1 cells assessed as inhibition of phenylephrine-induced Ca2+ flux preincubated for 30 mins followed by phenylephrine addition by Fluo-4-AM-dye based FLIPR assay. Format: cell-based.

The target of another series is Histamine H3 receptor (Homo sapiens, UniProt Q9Y5N1). The series can be described thus: Antagonist activity at human Histamine H3 receptor expressed in CHO cell membranes assessed as inhibition of histamine-induced [35S]GTPgammaS binding after 2 to 6 hrs by scintillation proximity assay. Format: functional.
Series [4] is described as follows: Lipophilicity, logD of compound at pH 7.4. Format: physicochemical. Particulars: buffer.
Series [5] deals with T3, Alpha-1A adrenergic receptor (Homo sapiens, UniProt P35348).
T3 sequence (P35348 whole entry): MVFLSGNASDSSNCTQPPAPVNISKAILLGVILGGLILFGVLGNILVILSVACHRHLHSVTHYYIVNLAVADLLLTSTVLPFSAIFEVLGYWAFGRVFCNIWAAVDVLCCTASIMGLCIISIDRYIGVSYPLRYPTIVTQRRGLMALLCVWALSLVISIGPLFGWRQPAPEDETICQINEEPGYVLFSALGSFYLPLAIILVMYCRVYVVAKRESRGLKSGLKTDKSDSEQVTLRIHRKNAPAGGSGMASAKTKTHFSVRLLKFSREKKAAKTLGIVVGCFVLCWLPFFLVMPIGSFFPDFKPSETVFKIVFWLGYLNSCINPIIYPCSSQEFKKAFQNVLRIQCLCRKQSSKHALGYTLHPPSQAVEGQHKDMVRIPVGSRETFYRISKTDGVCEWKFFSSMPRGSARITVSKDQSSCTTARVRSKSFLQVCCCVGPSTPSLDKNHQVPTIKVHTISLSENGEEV
The series can be described thus: Antagonist activity at adrenergic alpha1A receptor (unknown origin) expressed in Rat1 cells assessed as inhibition of phenylephrine-induced Ca2+ flux preincubated for 30 mins followed by phenylephrine addition by Fluo-4-AM-dye based FLIPR assay. Format: cell-based.

Series [6] addresses T1, Histamine H1 receptor. The series can be described thus: Antagonist activity at human Histamine H1 receptor expressed in CHO cells preincubated for 30 mins prior to histamine addition followed by subsequent washout and histamine challenge at 90 mins by Fluo-4 dye based FLIPR assay relative to azelastine. Format: cell-based.
Series [7] in a line: Ratio of drug level in brain to plasma in rat. Format: ADME. The note with it: brain and plasma, read-out: BPR.
For series [8], the target named is T1, Histamine H1 receptor. Nature of the series: Antagonist activity at human Histamine H1 receptor expressed in CHO cells assessed as inhibition of histamine-induced calcium flux at 100 nM preincubated for 30 mins followed by histamine addition by Fluo-4-AM dye based FLIPR assay. It is filed as functional, cell-based. Particulars: read-out: pA2 (converted).
The target of series [9] is T1, Histamine H1 receptor. The series can be described thus: Antagonist activity at human Histamine H1 receptor expressed in CHO cells preincubated for 30 mins prior to histamine addition followed by subsequent washout and histamine challenge at 270 mins by Fluo-4 dye based FLIPR assay relative to azelastine. Format: cell-based.
The next series concerns the target hERG (KCNH2) (Homo sapiens, UniProt Q12809). Described as §1. The note with it: human, CHO-K1 cell membranes expressing human ERG, probe [3H]-dofetilide. Also on record: species or system CHO-K1.

Activity calls are given as the source filed them. The calls are words filed in the database; no cut-off is given here. A value given as a limit tells only on which side of the number the result lay.

Chain of Histamine H3 receptor (Q9Y5N1 whole entry): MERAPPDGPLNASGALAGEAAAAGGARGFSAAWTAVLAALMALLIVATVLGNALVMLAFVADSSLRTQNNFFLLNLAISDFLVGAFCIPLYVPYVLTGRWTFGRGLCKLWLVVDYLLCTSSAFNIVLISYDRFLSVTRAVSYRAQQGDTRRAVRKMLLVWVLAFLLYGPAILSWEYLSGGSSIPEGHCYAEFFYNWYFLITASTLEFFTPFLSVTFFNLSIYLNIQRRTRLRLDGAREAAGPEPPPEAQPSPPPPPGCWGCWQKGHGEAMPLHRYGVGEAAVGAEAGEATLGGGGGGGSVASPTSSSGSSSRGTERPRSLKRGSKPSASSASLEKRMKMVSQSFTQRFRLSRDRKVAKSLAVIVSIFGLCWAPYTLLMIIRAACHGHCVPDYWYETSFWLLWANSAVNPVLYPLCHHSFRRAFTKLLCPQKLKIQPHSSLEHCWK
T1 sequence (P35367 whole entry): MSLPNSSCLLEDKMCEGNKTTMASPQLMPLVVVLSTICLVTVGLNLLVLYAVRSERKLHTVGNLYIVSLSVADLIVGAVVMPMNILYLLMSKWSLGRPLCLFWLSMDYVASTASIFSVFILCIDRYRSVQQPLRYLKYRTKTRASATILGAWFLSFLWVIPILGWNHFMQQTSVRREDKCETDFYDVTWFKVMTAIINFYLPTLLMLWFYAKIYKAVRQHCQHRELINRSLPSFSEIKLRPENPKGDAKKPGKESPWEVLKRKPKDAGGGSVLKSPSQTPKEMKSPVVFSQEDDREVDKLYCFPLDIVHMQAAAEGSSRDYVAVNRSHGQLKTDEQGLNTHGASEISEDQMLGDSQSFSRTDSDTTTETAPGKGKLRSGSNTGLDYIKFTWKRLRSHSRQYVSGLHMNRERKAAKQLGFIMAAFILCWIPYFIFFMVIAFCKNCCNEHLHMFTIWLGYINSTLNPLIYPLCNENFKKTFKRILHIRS
Chain of Voltage-gated inwardly rectifying potassium channel KCNH2 (Q12809 whole entry): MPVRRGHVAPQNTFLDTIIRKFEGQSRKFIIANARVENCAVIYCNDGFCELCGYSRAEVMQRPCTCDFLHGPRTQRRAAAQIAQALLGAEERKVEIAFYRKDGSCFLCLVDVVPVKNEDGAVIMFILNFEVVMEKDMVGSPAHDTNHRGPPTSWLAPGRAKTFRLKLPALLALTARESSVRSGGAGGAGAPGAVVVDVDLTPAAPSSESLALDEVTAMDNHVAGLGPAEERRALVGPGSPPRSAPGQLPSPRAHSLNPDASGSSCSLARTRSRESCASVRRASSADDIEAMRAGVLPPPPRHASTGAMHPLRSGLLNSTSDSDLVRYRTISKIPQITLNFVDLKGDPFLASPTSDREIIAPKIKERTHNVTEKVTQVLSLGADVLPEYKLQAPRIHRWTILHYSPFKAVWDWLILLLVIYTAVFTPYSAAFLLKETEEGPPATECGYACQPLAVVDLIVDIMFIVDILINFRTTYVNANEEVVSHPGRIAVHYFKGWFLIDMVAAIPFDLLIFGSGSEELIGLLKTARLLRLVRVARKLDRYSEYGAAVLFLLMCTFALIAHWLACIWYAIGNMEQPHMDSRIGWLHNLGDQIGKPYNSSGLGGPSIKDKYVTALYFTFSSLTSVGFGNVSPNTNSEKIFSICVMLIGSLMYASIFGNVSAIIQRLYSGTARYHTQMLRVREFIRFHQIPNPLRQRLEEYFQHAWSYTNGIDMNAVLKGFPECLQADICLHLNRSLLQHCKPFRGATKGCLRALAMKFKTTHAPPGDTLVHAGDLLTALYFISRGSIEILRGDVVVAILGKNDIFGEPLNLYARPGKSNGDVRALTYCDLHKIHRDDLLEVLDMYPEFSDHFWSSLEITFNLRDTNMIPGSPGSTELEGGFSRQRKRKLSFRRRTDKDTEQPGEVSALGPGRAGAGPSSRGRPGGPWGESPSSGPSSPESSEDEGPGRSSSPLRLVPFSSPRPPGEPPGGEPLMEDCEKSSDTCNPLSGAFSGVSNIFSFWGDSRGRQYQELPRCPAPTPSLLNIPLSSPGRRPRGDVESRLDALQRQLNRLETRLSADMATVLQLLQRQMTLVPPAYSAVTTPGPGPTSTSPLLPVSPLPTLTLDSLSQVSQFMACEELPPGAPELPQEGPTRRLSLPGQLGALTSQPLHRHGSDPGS
Chain of hERG (KCNH2) (Q12809 whole entry): as above

Usually IC50 stands for the concentration needed to halve the response being measured. Low values mean greater potency in that assay, high ones weaker potency in that assay. The Ki is a measure of affinity in units of concentration, obtained from inhibition or displacement. Broadly, the logD is lipophilicity at a set pH, counting ionised and neutral species. A low value points to lower lipophilicity. Regarding `c1cnc2c(N3CCN(CCCc4ccc(OCCCN5CCCCCC5)cc4)CC3)cccc2c1`, in [1], the IC50 was 1000 nM. In addition, the Ki at Histamine H1 receptor [2] was 79.4 nM; in [3] it was 100 nM; at Histamine H3 receptor, 0.398 nM; in series [5] it was 31.6 nM. Moreover, the logD in series [4] turned out to be 1.8.
On to `O=C(O)CCc1ccc2cccc(N3CCN(CCc4ccc(OCCCN5CCCCCC5)cc4)CC3)c2n1`, for which the concentration for half-maximal inhibition (IC50) in [1] was 15800 nM. The Ki on Histamine H1 receptor [2] is 12.6 nM; in series [3] it was 200 nM; on Histamine H3 receptor, 1.58 nM; in [5], > 2000 nM. For the same compound, the logD in series [4] turned out to be 0.18.
Consider `O=C(O)c1ccc2cccnc2c1N1CCN(CCc2ccc(OCCCN3CCCCCC3)cc2)CC1`, for which the Ki at Histamine H1 receptor [2] is > 2510 nM; in series [3] it was > 2000 nM; on Histamine H3 receptor, 1.26 nM; in series [5], > 2000 nM. Also, the logD in series [4] is -0.12.
For the compound `O=C(O)c1ccc2cccc(N3CCN(CCc4ccc(OCCCN5CCCCCC5)cc4)CC3)c2n1`, the Ki was 251 nM on Histamine H1 receptor [2], > 2000 nM in series [3], 0.501 nM at Histamine H3 receptor and > 2000 nM in [5]. Besides, the log distribution coefficient (logD) in [4] was -0.37.
Turning to `O=C(O)c1cnc2c(N3CCN(CCc4ccc(OCCCN5CCCCCC5)cc4)CC3)cccc2c1`, the half-inhibitory concentration (IC50) in series [1] was 20000 nM. The Ki on Histamine H1 receptor [2] is 398 nM; in series [3], > 2000 nM; at Histamine H3 receptor, 1.58 nM; in [5] it was > 2000 nM. The logD in series [4] was -0.78.
`O=C(O)CCc1ccc2cc(Cc3ccccc3)cc(N3CCN(CCc4ccc(OCCCN5CCCCCC5)cc4)CC3)c2n1` had a half-maximal inhibitory concentration (IC50) in series [1] of 6310 nM. Besides, the inhibition entry on Histamine H1 receptor [6] is “Active”. Besides, the Ki is 25.1 nM on Histamine H1 receptor [2], 251 nM in [3], 0.316 nM at Histamine H3 receptor and 50.1 nM in [5]. The Kp in [7] was found to be 0.15. The compound further showed a log distribution coefficient (logD) in series [4] of 1.9. In addition, the Kb on Histamine H1 receptor [8] was 6.31 nM.
For `CCCCc1cc(N2CCN(CCc3ccc(OCCCN4CCCCCC4)cc3)CC2)c2nc(CCC(=O)O)ccc2c1`, the half-maximal inhibitory concentration (IC50) in series [1] was 2510 nM. For the same compound, the inhibition constant Ki on Histamine H1 receptor [2] is 12.6 nM; in [3], 398 nM; on Histamine H3 receptor, 0.794 nM; in series [5], 316 nM. The compound also registered a logD in [4] of 2.3. The Kb on Histamine H1 receptor [8] was 1.58 nM.
`O=c1c2ccccc2c(Cc2ccc(Cl)cc2)nn1C[C@H]1CCCN1CCCCc1ccc(OCCCN2CCCCCC2)cc1` [GSK-1004723]: the inhibition result at Histamine H1 receptor [9] and at Histamine H1 receptor [6] was “Active” throughout. On hERG (KCNH2), this compound showed an IC50 at 4 h of 50.1 nM.
As for `O=C(O)/C=C/c1ccc2cccc(N3CCN(CCc4ccc(OCCCN5CCCCCC5)cc4)CC3)c2n1`, in [1], the 50% inhibitory concentration (IC50) was > 63100 nM. In addition, the Ki on Histamine H1 receptor [2] was 200 nM; in series [3], 79.4 nM; on Histamine H3 receptor, 1.58 nM; in series [5], 63.1 nM. Moreover, the logD in series [4] was found to be 0.34.
In turn, `O=C(O)CCc1cnc2c(N3CCN(CCc4ccc(OCCCN5CCCCCC5)cc4)CC3)cccc2c1` gave a concentration for half-maximal inhibition (IC50) in [1] of 31600 nM. Moreover, the Ki on Histamine H1 receptor [2] was 39.8 nM; in series [3], > 2000 nM; at Histamine H3 receptor, 1.26 nM; in series [5], > 2000 nM. Also, the pH-dependent lipophilicity (logD) in series [4] is -0.63.
Consider `O=C(O)c1ccnc2c(N3CCN(CCc4ccc(OCCCN5CCCCCC5)cc4)CC3)cccc12`, for which the IC50 in series [1] was > 63100 nM. Further, the Ki at Histamine H1 receptor [2] was > 2510 nM; in series [3], > 2000 nM; at Histamine H3 receptor, 1.58 nM; in [5] it was > 2000 nM. The logD in series [4] is -0.24.
For `c1cnc2c(N3CCN(CCCCc4ccc(OCCCN5CCCCCC5)cc4)CC3)cccc2c1`, the inhibition result at Histamine H1 receptor [9] and on Histamine H1 receptor [6] was “Active” throughout. In series [1], this compound had an IC50 of 1580 nM. Besides, the Ki on Histamine H1 receptor [2] was 15.8 nM; in series [3], 50.1 nM; on Histamine H3 receptor, 0.631 nM; in [5], 79.4 nM. In series [4], this compound gave a logD of 2.2. Moreover, the Kb on Histamine H1 receptor [8] was 5.01 nM.
In series [1], `O=C(O)c1cc(N2CCN(CCc3ccc(OCCCN4CCCCCC4)cc3)CC2)c2ncccc2c1` had an IC50 of 39800 nM. Further, the Ki is > 2510 nM at Histamine H1 receptor [2], > 2000 nM in series [3], 2 nM on Histamine H3 receptor and > 2000 nM in series [5]. Moreover, the log distribution coefficient (logD) in [4] was -1.
For the compound `CCc1cc(N2CCN(CCc3ccc(OCCCN4CCCCCC4)cc3)CC2)c2nc(CCC(=O)O)ccc2c1`, the Ki on Histamine H1 receptor [2] was 15.8 nM; in series [3] it was > 2000 nM; at Histamine H3 receptor, 2 nM; in series [5], 251 nM. The logD in series [4] was 1. Further, the Kb on Histamine H1 receptor [8] is 2.51 nM.
Consider `c1cnc2c(N3CCN(CCc4ccc(OCCCN5CCCCCC5)cc4)CC3)cccc2c1`, for which the inhibition result at Histamine H1 receptor [9] and on Histamine H1 receptor [6] was “Active” throughout. The IC50 in series [1] is 7940 nM. Also, the inhibition constant (Ki) was 20 nM at Histamine H1 receptor [2], 15.8 nM in series [3], 0.501 nM on Histamine H3 receptor and 7.94 nM in [5]. Besides, the Kp in series [7] is > 13. Besides, the pH-dependent lipophilicity (logD) in series [4] is 1.9. For the same compound, the Kb at Histamine H1 receptor [8] was 10 nM.
